We go through 1 compound from PMC12116657, “A “proto” type galectin expressed in striped bass (Morone saxatilis) tissues is released to epidermal mucus and binds to bacterial and mucus glycans” (Frontiers in Cellular and Infection Microbiology, 2025).

The subject of experiment [1] is proto type galectin from zebrafish (Danio rerio). The following applies: relative to Galβ1,4Glc = 1.0; comparison values, reference not given; cited from earlier work.
Experiment [2] relates to proto type galectin from toad (Bufo arenarum). The settings on record: relative to Galβ1,4Glc = 1.0; comparison values, reference not given; cited from earlier work.
Experiment [3] has as its system striped bass epidermal mucus. Briefly: Dot blot binding to untreated and glycosidase-treated epidermal mucus fractions. Set-up: species or system Morone saxatilis. The settings on record: pre-incubation of rMsgal1-L1 with lactose 200 mM; inhibition not complete. The procedure:
The crude epidermal mucus was cleared of particulate matter and fractionated by centrifugation at 17,000 rpm for 45 min at 4°C, resulting in three distinct layers: a clear upper layer of lower viscosity, an opaque more viscous layer immediately below that likely contain the highest concentration of mucins, and a loose pellet of solid cellular debris. Fractions obtained from multiple centrifugations were separated and corresponding layers were pooled as “clear upper layer pool” and “viscous intermediate layer pool.”
Pooled mucus layers were treated with N-glycosidase F [peptide-N ^4-(acetyl-β-glucosaminyl) asparagine amidase], O-glycosidase (O-glycopeptide endo-D-galactosyl-N-acetyl-α-galactosamino hydrolase, Roche), endoglycosidase H, or all three enzymes combined. […]
Aliquots (100 μL/well) of untreated or glycosidase-treated epidermal mucus pooled layers were dot-blotted onto PVDF membranes using a Bio-Dot Microfiltration Apparatus (Bio-Rad) under vacuum in replicate wells. […] For detection of endogenous ligands for Msgal1-L1, the membranes were blocked in 5% BSA/PBS, probing with rMsgal1-L1–HRP with or without lactose (200 mM), and detected with Stable-DAB (Invitrogen).

The subject of experiment [4] is proto type galectin from domestic cow (Bos taurus). The settings on record: relative to Galβ1,4Glc = 1.0; comparison values, reference not given; cited from earlier work.
The next experiment deals with Msgal1-L1. Briefly: Solid-phase binding-inhibition assay: rMsgal1-L1-HRP binding to asialofetuin (ASF) inhibited by carbohydrates. Set-up: species or system Morone saxatilis. The following applies: I50 normalized to Galβ1,4Glc (lactose) = 1.0; rMsgal1-L1-HRP binding to ASF; pH 8.0, 23°C, 10 mM ME. How it is done:
Binding of the rMsgal1-L1–HRP to asialofetuin (ASF) and its inhibition by carbohydrates were assessed and optimized as reported elsewhere ([Ahmed et al., 1996], [2002]). […] Thus, the inhibition of galectin binding to immobilized ASF by mono- and oligosaccharides is a standard system to analyze the fine specificity of novel galectins. Briefly, ASF (0.5 μg/100 μl/well) in 0.1 M Na2CO3/0.02% NaN3 (pH 9.6) was adsorbed onto the plastic wells (37°C, 3 h) and the bound glycoprotein was fixed with 2% formaldehyde (37°C, 30 min). The plates were washed three times with PBS (azide-free)/0.05% Tween 20, and incubated with the Msgal1-L1–HRP conjugate (10 ng/100 μl/well for binding assays) or with a pre-incubated mixture of equal volume of conjugate and varying concentrations of test ligands (for binding-inhibition assays). After incubation (4°C, 1 h) the plates were washed with ice-cold azide-free PBS-Tween 20 buffer and the bound peroxidase activity was assayed with 2,2’-azino-bis(3-ethylbenzothiazoline-6-sulfonic acid) (ABTS) as previously described ([Ahmed et al., 1996]).
The carbohydrate-binding specificity of Msgal1-L1 was determined by analyzing the binding of the rMsgal1-L1–HRP conjugate to ASF in the presence of several saccharides in a solid-phase assay under the optimal conditions of pH and temperature established above (pH 8.0; 23°C) and under a reducing environment (10 mM ME) ([Ahmed et al., 1996], [2002]). For each test saccharide, a complete inhibition curve was obtained, and the molar concentrations that inhibited the binding of the lectin conjugate to ASF by 50% (I 50) were calculated and normalized with respect to Galβ1,4Glc (lactose), which was included in each plate as a standard ( Table 2 ). The binding-inhibition profile for Msgal1-L1 was generally similar to those for proto type galectins from zebrafish (D. rerio), toad (B. arenarum), and domestic cow (Bos taurus). […] The presence of a fucose unit linked in α1,2 to the non-reducing Gal moiety decreased the inhibitory effectiveness in about one-third as compared to lactose, most likely by steric hindrance of the protein–Gal interaction. […] A hydrophobic phenyl group linked to the reducing end of Galβ1,3GlcNAc strengthened the Msgal1-L1 interaction with the ligand 6.5-fold.

For `OC[C@H]1O[C@@H](O[C@H]2[C@H](O)[C@@H](O)[C@H](O)O[C@@H]2CO)[C@H](O)[C@@H](O)[C@H]1O` [Galβ1,4Glc, lactose], the “Relative inhibitory activity, Danio rerio” value in experiment [1] was 1.0. In addition, the “Relative inhibitory activity, Bufo arenarum” value in experiment [2] is on record as 1.0. In experiment [3], the “Inhibition of Msgal1-L1 binding to mucus layers” value is given as “substantially reduced”. Besides, the “Relative inhibitory activity, Bos taurus” value in experiment [4] is 1.0. Besides, the “Relative inhibitory activity, Morone saxatilis” value in the experiment on Msgal1-L1 is 1.0.
